The text below walks through data of PubChem BioAssay (NCI).

Where “and” joins values, the source holds several entries; their conditions need not be identical. Identical values can stand only once.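 Grown in 96-well plates, cells were treated for 48 hours with each compound at five concentrations. Insufficient inhibition: endpoint recorded as highest concentration tested. Here, GI50 denotes the concentration required for 50% inhibition of growth. The concentration for full growth arrest is given as TGI.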

What all share (test): inhibition of tumour cell growth, NCI panel, 48 h
Assay [1] relates to 786-0 renal.
Assay [2] deals with ACHN renal.
The subject of assay [3] is HOP-62 NSCLC.
Assay [4] concerns LOX IMVI melanoma.
In assay [5] the test system is NCI/ADR-RES ovarian.
For assay [6], the system named is RPMI-8226 leukemia.
In assay [7] the test system is SF-268 CNS.
The subject of assay [8] is SF-295 CNS.
Assay [9] has as its system SK-MEL-28 melanoma.
The test system of assay [10] is TK-10 renal.

Take `O=C(O)c1nnsc1COCc1ccccc1`: the TGI in assay [1], in assay [2], in assay [3], in [4], in assay [5] and in assay [6] was over 100 µM in each case. Further, the TGI in assay [7], in assay [8], in [9] and in [10] was over 100 µM each time.

In the case of `O=C1C=C(c2cc(Br)c(O)c(Br)c2)/C(=C/c2cc(Br)c(O)c(Br)c2)O1`, the GI50 in assay [1] is 35.8 µM; in assay [2], 29.4 µM; in assay [4] it was 14.9 µM; in assay [5], 40.3 µM; in assay [6] it was 22.2 µM; in [7], 30.5 µM. For the same compound, the results for the GI50 in assay [8], in assay [9] and in [10] were 29.4 µM, 34.8 µM and 35.8 µM, respectively. For the same compound, the TGI in assay [1] is over 75 µM; in assay [2], over 75 µM; in assay [4] it was 43.2 µM; in assay [5], over 75 µM; in assay [6] it was 66.7 µM; in assay [7], over 75 µM. Moreover, the TGI in assay [8], in assay [9] and in [10] was over 75 µM throughout.

For the compound `NC(N)=N/N=C/c1c(-c2cc(Cl)sc2Cl)nc2n1CCS2`, the GI50 in assay [1] was 8.12 µM; in [2], 8.31 µM; in assay [3], 8.87 µM; in assay [4], 8.33 µM; in [5], over 50 µM; in assay [6], 9.34 µM. Also, the GI50 was 11.3 µM in assay [7], 8.75 µM in assay [8] and 8.65 µM in assay [10]. The TGI in assay [1] is 15.6 µM; in assay [2], 15.1 µM; in assay [3] it was 15.8 µM; in [4], 15.8 µM; in assay [5], over 50 µM; in assay [6], 19.4 µM. For the same compound, the TGI in [7] came to 23.5 µM; in assay [8], 17.1 µM; in [10], 15.8 µM.

As to `CC1(C)C2CCC1C(=O)C(C=O)C2` (stereo not drawn), the TGI in assay [1], in assay [2], in assay [3], in [4], in assay [5] and in [6] was over 100 µM throughout. Further, the TGI in assay [7], in assay [8], in assay [9] and in [10] was over 100 µM in each case.

With `O=C1Cc2c(-c3ccccc3)cc(-c3cccc(Cl)c3)nc2-c2ccccc2N1`, the GI50 in assay [1] was 0.977 µM; in assay [2], 1.15 µM. The TGI in [1] was 2.42 µM; in [2], 5.63 µM; in assay [3] it was 4.12 µM; in assay [4], 7.28 µM; in assay [5], 7.46 µM; in [6], over 93 µM. Besides, the TGI was 14 µM in [7], 28.6 µM in assay [8], 25.8 µM in assay [9] and 3.62 µM in assay [10].

Take `COC(=O)c1ccc2c(c1)c1c(C)c3cnccc3c(C)c1n2C`: the GI50 in assay [1] was 0.0666 µM; in assay [2] it was 0.0297 µM; in assay [3], 0.0538 µM; in assay [4], 0.0391 µM; in assay [5], 0.0498 µM; in assay [6], 0.0475 µM. For the same compound, the GI50 was 0.0618 µM in assay [7], 0.0652 µM in assay [8], 0.0951 µM in [9] and 0.277 µM in [10]. The TGI in [1] worked out at 1.34 µM; in assay [2], 0.299 µM; in [3], 0.995 µM; in [4], 0.194 µM; in assay [5], 0.636 µM; in assay [6], 0.409 µM. In addition, the TGI in assay [7] stood at 3.06 µM; in assay [8], 0.558 µM; in [9] it was 0.444 µM; in [10], 3.35 µM.

Turning to `NC(=O)c1ccccc1NC(=O)C(=O)C(c1cnc2ccc([N+](=O)[O-])cc2n1)[N+](=O)[O-]` (stereo not drawn), the TGI in [1], in assay [2], in [3], in assay [4], in assay [5] and in assay [6] was over 100 µM each time. Besides, the TGI in assay [7], in assay [8], in assay [9] and in assay [10] was over 100 µM throughout.

For `CCCCS(=N)(=O)CC[C@H](N)C(=O)O` (stereo partly drawn), the TGI was 434 µM and > 2460 µM in assay [1]; over 10000 µM in assay [2]; over 10000 µM in assay [3]; 5000 µM and > 6020 µM in assay [5]; 4730 µM and > 10000 µM in assay [6]; 5000 µM and > 10000 µM in [7]. Besides, the TGI in assay [8], in [9] and in assay [10] was over 10000 µM throughout. For the same compound, the GI50 was over 10000 µM in assay [2]; over 7620 µM in assay [3]; 2.12 µM in assay [4]; 1770 µM in [5]; over 8560 µM in [6]; over 10000 µM in assay [7]. The GI50 in assay [9] and in [10] was over 10000 µM in each case.

For `c1cc(-c2sc(-c3ccncc3)c(-c3ccncc3)c2-c2ccncc2)ccn1`, the TGI in assay [1] is 33 µM; in assay [2], 42.9 µM; in [3] it was 78.1 µM; in assay [4], 30.8 µM; in assay [5], 82 µM; in [6], over 100 µM. Further, the TGI in [7] stood at 37.7 µM; in assay [8], 41.6 µM; in assay [9], 46.1 µM; in assay [10], 32.9 µM.

Turning to `CCC(=O)N1C/C(=C/c2ccc(OC)cc2)C(=O)/C(=C/c2ccc(OC)cc2)C1`, the GI50 was 1.87 µM in assay [1]; 1.8 µM in assay [2]; 2.79 µM in assay [3]; 0.95 µM in [4]; 3.54 µM in [5]; 0.231 µM in assay [6]. Further, the GI50 in assay [7] is 2.31 µM; in [9] it was 1.85 µM; in assay [10] it was 2.72 µM. The TGI is 3.72 µM in assay [1]; 3.43 µM in [2]; 6.45 µM in assay [3]; 2.28 µM in assay [4]; over 100 µM in [5]; 0.748 µM in assay [6]. The TGI in assay [7] was 5.71 µM; in assay [9], 3.74 µM; in assay [10] it was 6.54 µM.
